# Laboratory results taken from US6355799B1, “Substituted benzene compounds, process for their preparation, and herbicidal and defoliant compositions containing them” (ISK Americas Incorporated, priority 1997, dated 2002).
# Legend:
# Format in all cases: in vivo
# [1] = test system: field corn (Zea mays L., var. Dekalb 535, CORN); test: Post-emerge test, crop safety; details: post-emerge, 14 days after application, rating scale 0-100
# Procedure, shortened: (§1)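 Visual ratings on a 0-100 scale (0 no damage, 100 all plants dead) were taken at 14 days after treatment. Rates of 15-1000 g ai/ha in acetone, 187 l/ha, were sprayed onto soil one day after planting (pre-emerge) or onto 2-3 leaf plants with 0.25% v/v surfactant (post-emerge).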
# [2] = test system: upland rice (Oryza sp., var. Tebonnet, RICE); test: Post-emerge test, crop safety; details: post-emerge, 14 days after application, rating scale 0-100
# Procedure, shortened: as §1
# [3] = test system: large crabgrass (Digitaria sanguinalis, DIGSA); test: Post-emerge test, greenhouse herbicide activity screening; details: post-emerge, 14 days after application, rating scale 0-100
# Procedure, shortened: (§2)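 Sandy loam pots; pre-emerge: sown 1 d pre-spray, surface-watered after, then bottom-watered. Post-emerge: sown 8–21 d before, 2–3 leaf stage, + 0.25% v/v NIS, bottom-watered. Acetone, 187 l/ha track spray, 15–1000 g ai/ha. 0–100 injury score, day 14.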
# [4] = test system: common ragweed (Ambrosia artemisizfolia L., AMBEL); test: as above; details: post-emerge, 14 days after application, rating scale 0-100
# Procedure, shortened: as §2
# [5] = test system: green foxtail (Setaria viridis, SETVI); test: as above; details: post-emerge, 14 days after application, rating scale 0-100
# Procedure, shortened: as §2
# [6] = test system: ivyleaf morningglory (Ipomoea hederacea, IPOHE); test: as above; details: post-emerge, 14 days after application, rating scale 0-100
# Procedure, shortened: as §2
# [7] = test system: lambsquarters (Chenopodium album, CHEAL); test: as above; details: post-emerge, 14 days after application, rating scale 0-100
# Procedure, shortened: as §2
# [8] = test system: redroot pigweed (Amaranthus retroflexus, AMARE); test: as above; details: post-emerge, 14 days after application, rating scale 0-100
# Procedure, shortened: as §2
# [9] = test system: sicklepod (Cassia obtusifolia, CASOB); test: as above; details: post-emerge, 14 days after application, rating scale 0-100
# Procedure, shortened: as §2
# [10] = test system: johnsongrass (Sorghum halepense, SORHA); test: as above; details: post-emerge, 14 days after application, rating scale 0-100
# Procedure, shortened: as §2
# [11] = test system: barnyardgrass (Echinochloa crus-galli, ECHCG); test: as above; details: post-emerge, 14 days after application, rating scale 0-100
# Procedure, shortened: as §2
# [12] = test system: velvetleaf (Abutilon theophrasti, ABUTH); test: as above; details: post-emerge, 14 days after application, rating scale 0-100
# Procedure, shortened: as §2
# [13] = test system: large crabgrass (Digitaria sanguinalis, DIGSA); test: Pre-emerge test, greenhouse herbicide activity screening; details: rated 14 days after application, 0 = no damage, 100 = complete death
# Procedure, shortened: as §1
# [14] = test system: green foxtail (Setaria viridis, SETVI); test: as above; details: rated 14 days after application, 0 = no damage, 100 = complete death
# Procedure, shortened: as §1
# [15] = test system: ivyleaf morningglory (Ipomoea hederacea, IPOHE); test: as above; details: rated 14 days after application, 0 = no damage, 100 = complete death
# Procedure, shortened: as §1
# [16] = test system: lambsquarters (Chenopodium album, CHEAL); test: as above; details: rated 14 days after application, 0 = no damage, 100 = complete death
# Procedure, shortened: as §1
# [17] = test system: sicklepod (Cassia obtusifolia, CASOB); test: as above; details: rated 14 days after application, 0 = no damage, 100 = complete death
# Procedure, shortened: as §1
# [18] = test system: johnsongrass (Sorghum halepense, SORHA); test: as above; details: rated 14 days after application, 0 = no damage, 100 = complete death
# Procedure, shortened: as §1
# [19] = test system: barnyardgrass (Echinochloa crus-galli, ECHCG); test: as above; details: rated 14 days after application, 0 = no damage, 100 = complete death
# Procedure, shortened: as §1
# [20] = test system: velvetleaf (Abutilon theophrasti, ABUTH); test: as above; details: rated 14 days after application, 0 = no damage, 100 = complete death
# Procedure, shortened: as §1
# [21] = test system: field corn (Zea mays L., var. Dekalb 535, CORN); test: Pre-emerge test, crop safety; details: rated 14 days after application, 0 = no damage, 100 = complete death
# Procedure, shortened: as §1
# [22] = test system: upland rice (Oryza sp., var. Tebonnet, RICE); test: Pre-emerge test, crop safety; details: rated 14 days after application, 0 = no damage, 100 = complete death
# Procedure, shortened: as §1
# [23] = test system: redroot pigweed (Amaranthus retroflexus, AMARE); test: Pre-emerge test, greenhouse herbicide activity screening; details: rated 14 days after application, 0 = no damage, 100 = complete death
# Procedure, shortened: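 Herbicidal damage is scored 0 (none) to 100 (complete plant death) two weeks after a simulated field spray. Rates span 15–1000 g ai/ha, delivered in acetone at 187 l/ha. For post-emergence treatments, plants have 2–3 leaves and the spray carries 0.25% v/v non-ionic surfactant.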
smiles,measurement,setting,value
COc1c(Cl)cc(F)c(-n2c(=O)cc(C(F)(F)F)n(C)c2=O)c1NC(=O)c1cnc2ccccc2n1 [2-105],phytotoxicity rating CORN,[1]; 63 g ai/ha,0
same,phytotoxicity rating CORN,[1]; 250 g ai/ha,10
same,phytotoxicity rating RICE,[2]; 63 g ai/ha,0
same,phytotoxicity rating RICE,[2]; 250 g ai/ha,30
same,phytotoxicity rating DIGSA,[3]; 63 g ai/ha,0
same,phytotoxicity rating DIGSA,[3]; 250 g ai/ha,10
same,phytotoxicity rating AMBEL,[4]; 63 g ai/ha,100
same,phytotoxicity rating AMBEL,[4]; 250 g ai/ha,100
same,phytotoxicity rating SETVI,[5]; 63 g ai/ha,70
same,phytotoxicity rating SETVI,[5]; 250 g ai/ha,100
same,phytotoxicity rating IPOHE,[6]; 63 g ai/ha,100
same,phytotoxicity rating IPOHE,[6]; 250 g ai/ha,100
same,phytotoxicity rating CHEAL,[7]; 63 g ai/ha,80
same,phytotoxicity rating CHEAL,[7]; 250 g ai/ha,90
same,phytotoxicity rating AMARE,[8]; 63 g ai/ha,100
same,phytotoxicity rating AMARE,[8]; 250 g ai/ha,100
same,phytotoxicity rating CASOB,[9]; 63 g ai/ha,80
same,phytotoxicity rating CASOB,[9]; 250 g ai/ha,80
same,phytotoxicity rating SORHA,[10]; 63 g ai/ha,0
same,phytotoxicity rating SORHA,[10]; 250 g ai/ha,30
same,phytotoxicity rating ECHCG,[11]; 63 g ai/ha,10
same,phytotoxicity rating ECHCG,[11]; 250 g ai/ha,30
same,phytotoxicity rating ABUTH,[12]; 63 g ai/ha,100
same,phytotoxicity rating ABUTH,[12]; 250 g ai/ha,100
same,"Pre-emerge Herbicidal Activity, phytotoxicity rating (0-100), DIGSA",[13]; 63 g ai/ha,90
same,"Pre-emerge Herbicidal Activity, phytotoxicity rating (0-100), DIGSA",[13]; 250 g ai/ha,100
same,"Pre-emerge Herbicidal Activity, phytotoxicity rating (0-100), SETVI",[14]; 63 g ai/ha,100
same,"Pre-emerge Herbicidal Activity, phytotoxicity rating (0-100), SETVI",[14]; 250 g ai/ha,100
same,"Pre-emerge Herbicidal Activity, phytotoxicity rating (0-100), IPOHE",[15]; 63 g ai/ha,20
same,"Pre-emerge Herbicidal Activity, phytotoxicity rating (0-100), IPOHE",[15]; 250 g ai/ha,95
same,"Pre-emerge Herbicidal Activity, phytotoxicity rating (0-100), CHEAL",[16]; 63 g ai/ha,100
same,"Pre-emerge Herbicidal Activity, phytotoxicity rating (0-100), CHEAL",[16]; 250 g ai/ha,100
same,"Pre-emerge Herbicidal Activity, phytotoxicity rating (0-100), CASOB",[17]; 63 g ai/ha,30
same,"Pre-emerge Herbicidal Activity, phytotoxicity rating (0-100), CASOB",[17]; 250 g ai/ha,60
same,"Pre-emerge Herbicidal Activity, phytotoxicity rating (0-100), SORHA",[18]; 63 g ai/ha,40
same,"Pre-emerge Herbicidal Activity, phytotoxicity rating (0-100), SORHA",[18]; 250 g ai/ha,95
same,"Pre-emerge Herbicidal Activity, phytotoxicity rating (0-100), ECHCG",[19]; 63 g ai/ha,20
same,"Pre-emerge Herbicidal Activity, phytotoxicity rating (0-100), ECHCG",[19]; 250 g ai/ha,100
same,"Pre-emerge Herbicidal Activity, phytotoxicity rating (0-100), ABUTH",[20]; 63 g ai/ha,100
same,"Pre-emerge Herbicidal Activity, phytotoxicity rating (0-100), ABUTH",[20]; 250 g ai/ha,100
same,"Pre-emerge phytotoxicity rating (0-100), crop damage, CORN",[21]; 63 g ai/ha,10
same,"Pre-emerge phytotoxicity rating (0-100), crop damage, CORN",[21]; 250 g ai/ha,10
same,"Pre-emerge phytotoxicity rating (0-100), crop damage, RICE",[22]; 63 g ai/ha,50
same,"Pre-emerge phytotoxicity rating (0-100), crop damage, RICE",[22]; 250 g ai/ha,70
same,"Pre-emerge Herbicidal Activity, phytotoxicity rating (0-100), AMARE",[23]; 63 g ai/ha,100
same,"Pre-emerge Herbicidal Activity, phytotoxicity rating (0-100), AMARE",[23]; 250 g ai/ha,100
